Test results published in the NIST ThermoML archive (doi:10.1021/je100765j).
Numbers after ± are expanded uncertainties.

Experiment: xn = mol fraction of the nth substance listed
Conditions: 101 kPa, Liquid; for speed of sound: Sing-around technique in a fixed-path interferometer

CCC(C)Cl (centres undefined) [2-chlorobutane] + CC(C)OC(C)C
Conditions	mass density [kg/m3]	speed of sound [m/s]
283.15 K, x1 = 0.0519	740.159 ± 0.91	1068.8 ± 1.1
283.15 K, x1 = 0.0988	745.897 ± 0.89	1071.7 ± 1.1
283.15 K, x1 = 0.2006	758.792 ± 0.87	1078 ± 1.1
283.15 K, x1 = 0.3211	774.756 ± 0.83	1085.4 ± 1.1
283.15 K, x1 = 0.4201	788.575 ± 0.81	1091.5 ± 1.1
283.15 K, x1 = 0.532	804.971 ± 0.77	1098.5 ± 1.2
283.15 K, x1 = 0.6244	819.223 ± 0.75	1104.3 ± 1.2
283.15 K, x1 = 0.726	835.602 ± 0.71	1110.7 ± 1.2
283.15 K, x1 = 0.8163	850.907 ± 0.68	1116.3 ± 1.2
283.15 K, x1 = 0.8817	862.411 ± 0.66	1120.4 ± 1.2
283.15 K, x1 = 0.9634	877.39 ± 0.63	1125.5 ± 1.2
288.15 K, x1 = 0.0519	734.981 ± 0.92	1046.5 ± 1.1
288.15 K, x1 = 0.0988	740.712 ± 0.9	1049.4 ± 1.1
288.15 K, x1 = 0.2006	753.569 ± 0.88	1055.8 ± 1.1
288.15 K, x1 = 0.3211	769.483 ± 0.85	1063.4 ± 1.1
288.15 K, x1 = 0.4201	783.251 ± 0.82	1069.7 ± 1.1
288.15 K, x1 = 0.532	799.602 ± 0.79	1076.9 ± 1.1
288.15 K, x1 = 0.6244	813.814 ± 0.76	1082.9 ± 1.1
288.15 K, x1 = 0.726	830.144 ± 0.72	1089.5 ± 1.1
288.15 K, x1 = 0.8163	845.414 ± 0.69	1095.4 ± 1.2
288.15 K, x1 = 0.8817	856.901 ± 0.67	1099.6 ± 1.2
288.15 K, x1 = 0.9634	871.819 ± 0.64	1104.9 ± 1.2
293.15 K, x1 = 0.0519	729.792 ± 0.93	1024 ± 1.1
293.15 K, x1 = 0.0988	735.485 ± 0.92	1027.1 ± 1.1
293.15 K, x1 = 0.2006	748.303 ± 0.89	1033.7 ± 1.1
293.15 K, x1 = 0.3211	764.161 ± 0.86	1041.4 ± 1.1
293.15 K, x1 = 0.4201	777.889 ± 0.83	1047.9 ± 1.1
293.15 K, x1 = 0.532	794.197 ± 0.8	1055.3 ± 1.1
293.15 K, x1 = 0.6244	808.369 ± 0.77	1061.5 ± 1.1
293.15 K, x1 = 0.726	824.657 ± 0.73	1068.3 ± 1.1
293.15 K, x1 = 0.8163	839.877 ± 0.7	1074.4 ± 1.1
293.15 K, x1 = 0.8817	851.332 ± 0.68	1078.7 ± 1.1
293.15 K, x1 = 0.9634	866.214 ± 0.65	1084.3 ± 1.1
298.15 K, x1 = 0.0519	724.535 ± 0.94	1001.8 ± 1.1
298.15 K, x1 = 0.0988	730.22 ± 0.93	1004.9 ± 1.1
298.15 K, x1 = 0.2006	742.995 ± 0.9	1011.5 ± 1.1
298.15 K, x1 = 0.3211	758.802 ± 0.87	1019.4 ± 1.1
298.15 K, x1 = 0.4201	772.485 ± 0.84	1026.1 ± 1.1
298.15 K, x1 = 0.532	788.75 ± 0.81	1033.8 ± 1.1
298.15 K, x1 = 0.6244	802.882 ± 0.78	1040.2 ± 1.1
298.15 K, x1 = 0.726	819.123 ± 0.75	1047.2 ± 1.1
298.15 K, x1 = 0.8163	834.307 ± 0.72	1053.5 ± 1.1
298.15 K, x1 = 0.8817	845.724 ± 0.69	1057.9 ± 1.1
298.15 K, x1 = 0.9634	860.57 ± 0.66	1063.7 ± 1.1
303.15 K, x1 = 0.0519	719.276 ± 0.95	979.57 ± 1.1
303.15 K, x1 = 0.0988	724.919 ± 0.94	982.73 ± 1.1
303.15 K, x1 = 0.2006	737.649 ± 0.91	989.5 ± 1.1
303.15 K, x1 = 0.3211	753.411 ± 0.88	997.66 ± 1.1
303.15 K, x1 = 0.4201	767.06 ± 0.85	1004.4 ± 1.1
303.15 K, x1 = 0.532	783.263 ± 0.82	1012.3 ± 1.1
303.15 K, x1 = 0.6244	797.355 ± 0.79	1018.8 ± 1.1
303.15 K, x1 = 0.726	813.555 ± 0.76	1026.1 ± 1.1
303.15 K, x1 = 0.8163	828.698 ± 0.73	1032.6 ± 1.1
303.15 K, x1 = 0.8817	840.084 ± 0.7	1037.2 ± 1.1
303.15 K, x1 = 0.9634	854.895 ± 0.68	1043.2 ± 1.1
308.15 K, x1 = 0.0519	713.939 ± 0.96	957.51 ± 1.1
308.15 K, x1 = 0.0988	719.569 ± 0.95	960.7 ± 1.1
308.15 K, x1 = 0.2006	732.261 ± 0.92	967.56 ± 1.1
308.15 K, x1 = 0.3211	747.973 ± 0.89	975.92 ± 1.1
308.15 K, x1 = 0.4201	761.571 ± 0.86	982.81 ± 1.1
308.15 K, x1 = 0.532	777.737 ± 0.83	990.84 ± 1.1
308.15 K, x1 = 0.6244	791.784 ± 0.8	997.54 ± 1.1
308.15 K, x1 = 0.726	807.944 ± 0.77	1005 ± 1.1
308.15 K, x1 = 0.8163	823.046 ± 0.74	1011.6 ± 1.1
308.15 K, x1 = 0.8817	834.402 ± 0.72	1016.4 ± 1.1
308.15 K, x1 = 0.9634	849.179 ± 0.69	1022.6 ± 1.1
313.15 K, x1 = 0.0519	708.573 ± 0.97	935.64 ± 1.1
313.15 K, x1 = 0.0988	714.181 ± 0.96	938.87 ± 1.1
313.15 K, x1 = 0.2006	726.833 ± 0.93	945.88 ± 1.1
313.15 K, x1 = 0.3211	742.484 ± 0.9	954.34 ± 1.1
313.15 K, x1 = 0.4201	756.049 ± 0.87	961.42 ± 1.1
313.15 K, x1 = 0.532	772.166 ± 0.84	969.67 ± 1.1
313.15 K, x1 = 0.6244	786.18 ± 0.81	976.57 ± 1.1
313.15 K, x1 = 0.726	802.287 ± 0.78	984.26 ± 1.1
313.15 K, x1 = 0.8163	817.349 ± 0.75	991.15 ± 1.1
313.15 K, x1 = 0.8817	828.683 ± 0.73	996.09 ± 1.1
313.15 K, x1 = 0.9634	843.442 ± 0.7	1002.5 ± 1.1
